Values joined by “and” are separate entries in the source; they are usually repeats but may differ in a detail not shown here. Identical values can stand only once. Inconclusive results and toxic doses are left out.

This passage reports T/C results from PubChem BioAssay AID248 (DTP/NCI, 2004).

The experiment deals with L1210 leukemia ip in BDF1 mice, survival T/C. Put plainly: NCI In Vivo Anticancer Drug Screen. Data for tumor model L1210 Leukemia (intraperitoneal) in B6D2F1 (BDF1) mice. Conditions: endpoint: mean survival time, higher = longer survival. Put shortly:
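Read-out is survival time, reported as the treated-group measurement over the vehicle-control measurement.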

Setting [1] is: dose: 100.0 mg/kg/injection, schedule: Q01DX001 (ip), vehicle: carboxymethylcellulose (CMC).
Where [2] appears, read: dose: 200.0 mg/kg/injection, schedule: Q01DX001 (ip), vehicle: carboxymethylcellulose (CMC).
Setting [3] is: dose: 400.0 mg/kg/injection, schedule: Q01DX001 (ip), vehicle: carboxymethylcellulose (CMC).
[4] abbreviates: dose: 100.0 mg/kg/injection, schedule: Q01DX001 (ip), vehicle: other.
Setting [5] is: dose: 200.0 mg/kg/injection, schedule: Q01DX001 (ip), vehicle: other.
Setting [6] is: dose: 200.0 mg/kg/injection, schedule: Q01DX009 (ip), vehicle: saline with Tween-80.
Where [7] appears, read: dose: 100.0 mg/kg/injection, schedule: Q01DX001 (ip), vehicle: saline.
[8] abbreviates: dose: 200.0 mg/kg/injection, schedule: Q01DX001 (ip), vehicle: saline.

On to `Oc1c2ccccc2cc2cnc3ccccc3c12`, for which the T/C under setting [1] is 107 % of control, the T/C under setting [2] is 103 % of control and the T/C under setting [3] is 94 % of control.
As for `COC(=O)C(=C/C=C/c1cc(O)c(O)c(O)c1)C(=O)OC`, the T/C reads like this: (dose: 50.0 mg/kg/injection, schedule: Q01DX001 (ip), vehicle: other) 104 % of control; under setting [4], 98 % of control; under setting [5], 95 % of control.
Regarding `C(=Nc1ccc2c(c1)Cc1ccccc1-2)c1ccccc1`, the T/C by setting is: (dose: 100.0 mg/kg/injection, schedule: Q01DX009 (ip), vehicle: Klucel (hydroxypropylcellulose) (HPC)) 104 % of control; (dose: 100.0 mg/kg/injection, schedule: Q04DX003 (ip), vehicle: Klucel (hydroxypropylcellulose) (HPC)) 100 % of control; (dose: 200.0 mg/kg/injection, schedule: Q01DX009 (ip), vehicle: Klucel (hydroxypropylcellulose) (HPC)) 96 % of control; (dose: 200.0 mg/kg/injection, schedule: Q04DX003 (ip), vehicle: Klucel (hydroxypropylcellulose) (HPC)) 95 % of control; (dose: 400.0 mg/kg/injection, schedule: Q04DX003 (ip), vehicle: Klucel (hydroxypropylcellulose) (HPC)) 103 % of control.
Regarding `Cn1cnc([N+](=O)[O-])c1C(N)=O`, the T/C runs as follows: (dose: 100.0 mg/kg/injection, schedule: Q04DX002 (ip), vehicle: Klucel (hydroxypropylcellulose) (HPC)) 88 % of control; (dose: 200.0 mg/kg/injection, schedule: Q04DX002 (ip), vehicle: Klucel (hydroxypropylcellulose) (HPC)) 95 % of control; (dose: 400.0 mg/kg/injection, schedule: Q04DX002 (ip), vehicle: Klucel (hydroxypropylcellulose) (HPC)) 88 % of control.
`Oc1ccc(N=Cc2ccccc2)cc1`: the T/C is 98 % of control (dose: 100.0 mg/kg/injection, schedule: Q04DX002 (ip), vehicle: gum acacia); 109 % of control (dose: 200.0 mg/kg/injection, schedule: Q04DX002 (ip), vehicle: gum acacia); 106 % of control (dose: 400.0 mg/kg/injection, schedule: Q04DX002 (ip), vehicle: gum acacia).
Regarding `CCOC(=O)CN(C(=O)OCc1ccccc1)N(C)C(=O)OCc1ccccc1`, the T/C reads like this: (dose: 25.0 mg/kg/injection, schedule: Q04DX003 (ip), vehicle: saline with Tween-80) 101 % of control; (dose: 50.0 mg/kg/injection, schedule: Q04DX003 (ip), vehicle: saline with Tween-80) 94 % of control; (dose: 100.0 mg/kg/injection, schedule: Q04DX003 (ip), vehicle: saline with Tween-80) 101 % of control; (dose: 200.0 mg/kg/injection, schedule: Q04DX003 (ip), vehicle: saline with Tween-80) 97 % of control; (dose: 400.0 mg/kg/injection, schedule: Q04DX003 (ip), vehicle: saline with Tween-80) 101 % of control.
For `CN(Cc1ccccc1)/N=N/c1nc[nH]c1C(N)=O`, the T/C reads like this: (dose: 4.0 mg/kg/injection, schedule: Q01DX009 (ip), vehicle: saline with Tween-80) 98 % of control; (dose: 8.0 mg/kg/injection, schedule: Q01DX009 (ip), vehicle: saline with Tween-80) 103 % of control; (dose: 22.0 mg/kg/injection, schedule: Q01DX009 (ip), vehicle: saline with Tween-80) 98 % of control; (dose: 25.0 mg/kg/injection, schedule: Q01DX009 (ip), vehicle: water) 122 % of control; (dose: 35.0 mg/kg/injection, schedule: Q01DX009 (ip), vehicle: saline with Tween-80) 117 % of control; (dose: 50.0 mg/kg/injection, schedule: Q01DX001 (ip), vehicle: water) 102 % of control. In addition, the T/C was 124 % of control (dose: 50.0 mg/kg/injection, schedule: Q01DX009 (ip), vehicle: saline); 105 % of control (dose: 50.0 mg/kg/injection, schedule: Q04DX003 (ip), vehicle: water); 104 % of control under setting [4]; 108 % of control (dose: 100.0 mg/kg/injection, schedule: Q01DX001 (ip), vehicle: water); 181 % of control (dose: 100.0 mg/kg/injection, schedule: Q01DX009 (ip), vehicle: acetone); 171 % of control and 175 % of control (dose: 100.0 mg/kg/injection, schedule: Q01DX009 (ip), vehicle: water). Besides, the T/C (dose: 100.0 mg/kg/injection, schedule: Q04DX003 (ip), vehicle: other) was 102 % of control; the T/C under setting [5] was 108 % of control; the T/C (dose: 200.0 mg/kg/injection, schedule: Q01DX001 (ip), vehicle: water) is 113 % of control; the T/C (dose: 200.0 mg/kg/injection, schedule: Q01DX009 (ip), vehicle: acetone) is 150 % of control; the T/C under setting [6] is 176 % of control; the T/C (dose: 200.0 mg/kg/injection, schedule: Q01DX009 (ip), vehicle: water) was 106 % of control and 113 % of control. The T/C reads like this: (dose: 200.0 mg/kg/injection, schedule: Q04DX003 (ip), vehicle: other) 122 % of control; (dose: 400.0 mg/kg/injection, schedule: Q01DX001 (ip), vehicle: other) 112 % of control; (dose: 400.0 mg/kg/injection, schedule: Q01DX009 (ip), vehicle: acetone) 87 % of control; (dose: 400.0 mg/kg/injection, schedule: Q04DX003 (ip), vehicle: other) 155 % of control.
Consider `C=CC[P+](c1ccccc1)(c1ccccc1)c1ccccc1`, for which the T/C was 103 % of control (dose: 1.56 mg/kg/injection, schedule: Q01DX009 (ip), vehicle: Klucel (hydroxypropylcellulose) (HPC)); 101 % of control (dose: 3.12 mg/kg/injection, schedule: Q01DX009 (ip), vehicle: Klucel (hydroxypropylcellulose) (HPC)); 104 % of control (dose: 5.0 mg/kg/injection, schedule: Q01DX001 (ip), vehicle: saline); 94 % of control (dose: 6.25 mg/kg/injection, schedule: Q01DX009 (ip), vehicle: Klucel (hydroxypropylcellulose) (HPC)); 107 % of control (dose: 9.5 mg/kg/injection, schedule: Q01DX001 (ip), vehicle: other); 98 % of control (dose: 10.0 mg/kg/injection, schedule: Q01DX001 (ip), vehicle: saline). The T/C is, setting by setting: (dose: 12.5 mg/kg/injection, schedule: Q01DX009 (ip), vehicle: Klucel (hydroxypropylcellulose) (HPC)) 103 % of control; (dose: 19.0 mg/kg/injection, schedule: Q01DX001 (ip), vehicle: other) 100 % of control; (dose: 20.0 mg/kg/injection, schedule: Q01DX001 (ip), vehicle: saline) 102 % of control; (dose: 38.0 mg/kg/injection, schedule: Q01DX001 (ip), vehicle: other) 102 % of control.
Turning to `O=[N+]([O-])c1ccc(C[Se]c2ncnc3c2ccn3C2OC(CO)C(O)C2O)cc1` (stereo unspecified), the T/C is, setting by setting: (dose: 6.25 mg/kg/injection, schedule: Q01DX009 (ip), vehicle: saline) 95 % of control; (dose: 12.5 mg/kg/injection, schedule: Q01DX005 (ip), vehicle: saline) 102 % of control; (dose: 12.5 mg/kg/injection, schedule: Q01DX009 (ip), vehicle: saline) 91 % of control; (dose: 25.0 mg/kg/injection, schedule: Q01DX005 (ip), vehicle: saline) 105 % of control; (dose: 25.0 mg/kg/injection, schedule: Q01DX009 (ip), vehicle: saline) 102 % of control.
Take `CCOC(=O)CC(CC[N+](=O)[O-])C(=O)OCC` (stereo unspecified): the T/C was 108 % of control (dose: 50.0 mg/kg/injection, schedule: Q04DX002 (ip), vehicle: saline with Tween-80); 109 % of control under setting [7]; 89 % of control (dose: 100.0 mg/kg/injection, schedule: Q04DX002 (ip), vehicle: saline with Tween-80); 110 % of control under setting [8]; 96 % of control (dose: 200.0 mg/kg/injection, schedule: Q04DX002 (ip), vehicle: saline with Tween-80); 97 % of control (dose: 400.0 mg/kg/injection, schedule: Q01DX001 (ip), vehicle: saline).
For `CC(=O)Nc1cc(C)c(C=O)cc1C`, the T/C was 88 % of control under setting [1], 108 % of control under setting [2] and 92 % of control under setting [3].
Consider `N#CCCP(=O)(CCC#N)CCCCCCP(=O)(CCC#N)CCC#N`, for which the T/C is, setting by setting: (dose: 100.0 mg/kg/injection, schedule: Q01DX009 (ip), vehicle: saline with Tween-80) 90 % of control; under setting [6], 90 % of control; (dose: 400.0 mg/kg/injection, schedule: Q01DX009 (ip), vehicle: saline with Tween-80) 89 % of control.
As for `CCCCCCCCCCCCNC(=O)Nc1ccc(Cl)c(Cl)c1`, the T/C was 92 % of control under setting [7] and 93 % of control under setting [8].
As for `CC1(C)OCC(C2OC3OC(C)(C)OC3C2OS(C)(=O)=O)O1` (stereo unspecified), the T/C is, setting by setting: under setting [1], 101 % of control; under setting [2], 103 % of control; under setting [3], 97 % of control.
